Measured values published in patent US20090291964A1, “Potentiators of Antibacterial Activity” (priority 2003, published 2009).
Where two headings read alike, the source gives them in different places.

How the values were obtained:
Format in all cases: cell-based
E. faecalis ATCC 29212 = assay: MIC by NCCLS microdilution, EtBr/EPI with and without EPI; conditions: for MIC: Enterococcus faecalis, ATCC29212
Method: (§1) 3% sterile laked horse blood (Quad Five, Ryegate, Mont.) was added to assays for E. faecalis and S. Pneumoniae. A final concentration of 1% DMSO was present in all assays.
(§2) EtBr is a general substrate for many different efflux pumps in bacteria. Markham et al., “Multiple Novel Inhibitors of the NorA Multidrug Transporter of Staphylococcus aureus”, Antimicrob. Agents Chemother. 43:2404-2408 (1999). Since EtBr is a non-specific DNA intercalator, the only known mechanism of resistance to EtBr is via efflux. Markham et al., “Multiple Novel Inhibitors of the NorA Multidrug Transporter of Staphylococcus aureus”, Antimicrob. Agents Chemother. 43:2404-2408 (1999).

S. pneumoniae ATCC 10015 = assay: as above; conditions: for MIC: Streptococcus pneumoniae, ATCC10015
Method: as §1, §2

S. aureus K2068 = assay: Minimal effective concentration (MEC) of EPI for gatifloxacin
Method: (§3) The MEC was determined as the minimal concentration of EPI that produced the maximal reduction in substrate MIC.
(§4) Since any given compound may be recognized by an unknown number of efflux pumps in a particular organism, we reasoned that the MEC of A-106 and C-9 should vary for different antibiotics. Also, the MEC of A-106 and C-9 should vary with the degree of efflux expression in a given strain. […] This was confirmed with two other wild type strains, SA-8325-4 and SA-1199 (Table 3).
(§5) The MEC of A-106 and C-9 for gatifloxacin was determined in these efflux mutants. […] A similar result was obtained with efflux mutant K2068, where the MEC for A-106 was 6.25 μg/ml and the MEC for C-9 was 3.1 μg/ml. […] This may reflect that either gatifloxacin is recognized by fewer pumps than EtBr or it is a poorer efflux substrate in general. This is consistent with the finding that the activity of A-106 was non-saturable for EtBr but is saturable for gatifloxacin.

S. aureus SA-1199B = assay: as above
Method: as §3, §4, §5

S. aureus ATCC 29213 = assay: MIC by NCCLS microdilution, antibacterial agents with and without EPI; conditions: for MIC: Staphylococcus aureus
Summary of the method: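 Efflux pump inhibitors were combined at fixed concentrations with antibiotics from several classes and tested against Staphylococcus aureus ATCC 29213 to compare minimum inhibitory concentrations with and without inhibitor. The inhibitor level was tied to its minimal effective concentration for ethidium bromide, a general efflux pump substrate. All assays contained a final concentration of 1% DMSO.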

[1] = system: S. aureus SA-1199B (NorA overproducing); assay: MIC of fluoroquinolones with and without EPI
Summary of the method: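 Fluoroquinolone MICs determined with and without efflux pump inhibitor in S. aureus SA-1199B (NorA overproducer with A116E GrlA mutation) and SA-K2068 (SA-8325-4 with a non-NorA multidrug efflux pump overproducing mutation). All assays contained 1% DMSO final.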

[2] = system: S. aureus SA-1199 (clinical isolate, susceptible); assay: MIC of fluoroquinolones with and without EPI
Summary of the method: (§6)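 Fluoroquinolone MICs determined with and without efflux pump inhibitor; all assays contained 1% DMSO final. SA-8325-4 is NCTC 8325 cured of prophages; SA-1199 is a susceptible clinical isolate.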

S. aureus SA-8325-4 = assay: MIC of fluoroquinolones with and without EPI
Summary of the method: as §6

[3] = S. aureus ATCC 29213, EPI at 4X the MEC for EtBr, VX-710 at 100 μg/ml
[4] = S. aureus SA-1199B, EPI at 4X the MEC for EtBr, VX-710 at 100 μg/ml
[5] = SA-1199B, EPIs at 4 times MEC for EtBr, A-106 at 100 μg/ml
[6] = Staphylococcus aureus, read-out: MIC of EtBr with EPI
[7] = S. aureus SA-1199, EPI at 4X the MEC for EtBr, VX-710 at 100 μg/ml
[8] = S. aureus SA-8325-4, EPI at 4X the MEC for EtBr, VX-710 at 100 μg/ml

Structure (SMILES): COc1cc(C(=O)C(=O)N(C)[C@@H](Cc2ccc(Cl)cc2)C(=O)N(Cc2ccccc2)C(CCc2ccncc2)CCc2ccncc2)cc(OC)c1OC [C-9, (S)—N-Benzyl-2-(methyl-(2-oxo-2-(3,4,5-trimethoxyphenyl)acetyl)amino)-3-(4-chloro-phenyl)-N-(3-pyridin-4-yl-1-(2-pyridin-4-yl-ethyl)propyl)propionamide]
- Fold-reduction in EtBr MIC (E. faecalis ATCC 29212; E. faecalis ATCC 29212, EPIs used at the MEC, except VX-710 at 100 μg/ml): 2
- MIC (E. faecalis ATCC 29212; E. faecalis ATCC 29212, EPI alone, read-out: MIC of EPI): > 100 µg/mL
- MIC (E. faecalis ATCC 29212; E. faecalis ATCC 29212, EPIs used at the MEC, except VX-710 at 100 μg/ml, read-out: MIC of EtBr with EPI): 3.1 µg/mL
- intrinsic antibacterial activity of EPI (E. faecalis ATCC 29212; at 100 μg/ml, E. faecalis): no intrinsic antibacterial activity
- Fold-reduction in EtBr MIC (S. pneumoniae ATCC 10015; S. pneumoniae ATCC 10015, EPIs used at the MEC, except VX-710 at 100 μg/ml): 2
- MIC (S. pneumoniae ATCC 10015; S. pneumoniae ATCC 10015, EPI alone, read-out: MIC of EPI): > 100 µg/mL
- MIC (S. pneumoniae ATCC 10015; S. pneumoniae ATCC 10015, EPIs used at the MEC, except VX-710 at 100 μg/ml, read-out: MIC of EtBr with EPI): 1 µg/mL
- intrinsic antibacterial activity of EPI (S. pneumoniae ATCC 10015; at 100 μg/ml, S. pneumoniae): no intrinsic antibacterial activity
- MEC (S. aureus K2068; S. aureus K2068 (nonNorA pump overproducer), lowest amount of EPI which produces the maximum effect on the MIC of gatifloxacin): 3.1 µg/mL
- MEC for gatifloxacin (S. aureus K2068; efflux mutant K2068): 3.1 µg/mL
- MEC (S. aureus SA-1199B; S. aureus SA-1199B (NorA overproducer), lowest amount of EPI which produces the maximum effect on the MIC of gatifloxacin): 3.1 µg/mL
- MEC for gatifloxacin (S. aureus SA-1199B; efflux mutant, strain not named in the sentence (SA-1199B by context)): 3.1 µg/mL
- MIC of gatifloxacin with EPI (S. aureus ATCC 29213; S. aureus ATCC 29213 (Table 4)): 0.125 µg/mL
- MIC of ciprofloxacin with EPI (S. aureus ATCC 29213; [3]): 0.125 µg/mL
- MIC of gatifloxacin with EPI (S. aureus ATCC 29213; [3]): 0.063 µg/mL
- MIC of gentamicin with EPI (S. aureus ATCC 29213; [3]): 0.125 µg/mL
- MIC of levofloxacin with EPI (S. aureus ATCC 29213; [3]): 0.125 µg/mL
- MIC of norfloxacin with EPI (S. aureus ATCC 29213; [3]): 0.5 µg/mL
- Fold-reduction in EtBr MIC (S. aureus ATCC 29213; S. aureus ATCC 29213, EPIs used at the MEC, except VX-710 at 100 μg/ml): 4
- reduction of the MIC of EtBr (S. aureus ATCC 29213; S. aureus wild type, EPI up to 100 μg/ml, data not shown): 30 fold
- MIC (S. aureus ATCC 29213; ATCC29213, read-out: MIC of EPI, S. aureus ATCC 29213, EPI alone): > 100 µg/mL
- MIC (S. aureus ATCC 29213; ATCC29213, read-out: MIC of EtBr with EPI, S. aureus ATCC 29213, EPI at 4X the MEC for EtBr, VX-710 at 100 μg/ml): 0.8 µg/mL
- MIC (S. aureus ATCC 29213; ATCC29213, read-out: MIC of EtBr with EPI, S. aureus ATCC 29213, EPIs used at the MEC, except VX-710 at 100 μg/ml): 1.6 µg/mL
- Fold-reduction in MIC (S. aureus ATCC 29213; gatifloxacin, S. aureus ATCC 29213): 1
- effect of EPI on the MIC of gatifloxacin (S. aureus ATCC 29213; wild type strain ATCC 29213): unaffected
- MIC of gatifloxacin with EPI ([1]; S. aureus SA-1199B (NorA overproducer) (Table 4)): 0.25 µg/mL
- MIC of ciprofloxacin with EPI [1, 4]: 2 µg/mL
- MIC of gatifloxacin with EPI [1, 4]: 0.25 µg/mL
- MIC of gentamicin with EPI [1, 4]: 0.125 µg/mL
- MIC of levofloxacin with EPI [1, 4]: 1 µg/mL
- MIC of norfloxacin with EPI [1, 4]: 8 µg/mL
- reduction of MIC of ciprofloxacin [1, 5]: 8 fold
- reduction of MIC of gatifloxacin [1, 5]: 4 fold
- reduction of MIC of levofloxacin [1, 5]: 2 fold
- reduction of MIC of norfloxacin [1, 5]: 32 fold
- MIC [1, 6]: 3.1 µg/mL
- Fold-reduction in MIC ([1]; gatifloxacin, S. aureus SA-1199B (NorA overproducer)): 2
- MIC of ciprofloxacin with EPI [2, 7]: 0.125 µg/mL
- MIC of gatifloxacin with EPI [2, 7]: 0.063 µg/mL
- MIC of gentamicin with EPI [2, 7]: 0.125 µg/mL
- MIC of levofloxacin with EPI [2, 7]: 0.125 µg/mL
- MIC of norfloxacin with EPI [2, 7]: 0.25 µg/mL
- MIC [2, 6]: 1.6 µg/mL
- MIC of ciprofloxacin with EPI (S. aureus SA-8325-4; [8]): 0.125 µg/mL
- MIC of gatifloxacin with EPI (S. aureus SA-8325-4; [8]): 0.125 µg/mL
- MIC of gentamicin with EPI (S. aureus SA-8325-4; [8]): 0.063 µg/mL
- MIC of levofloxacin with EPI (S. aureus SA-8325-4; [8]): 0.25 µg/mL
- MIC of norfloxacin with EPI (S. aureus SA-8325-4; [8]): 0.25 µg/mL
- MIC (S. aureus SA-8325-4; Staphylococcus aureus, SA83254, read-out: MIC of EtBr with EPI): 0.8 µg/mL
